# Measured values as given in PubChem BioAssay (NCI).
#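 Where inhibition never reached the appropriate level, the endpoint shown equals the highest concentration tested. Otherwise, values were interpolated linearly from a five-concentration, 48-hour dose response in 96-well plates. GI50: concentration for 50% inhibition of growth. TGI marks complete inhibition of growth.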
# Assays:
# Assay in all cases: growth of human tumour cells (NCI), 48 h
# BT-549 breast = test system: BT-549 breast
# 786-0 renal = test system: 786-0 renal
# OVCAR-5 ovarian = test system: OVCAR-5 ovarian
# A498 renal = test system: A498 renal
# HCC-2998 colon = test system: HCC-2998 colon
# COLO 205 colon = test system: COLO 205 colon
# RPMI-8226 leukemia = test system: RPMI-8226 leukemia
# K-562 leukemia = test system: K-562 leukemia
# UACC-62 melanoma = test system: UACC-62 melanoma
# UACC-257 melanoma = test system: UACC-257 melanoma
# NCI-H522 lung = test system: NCI-H522 lung
# SK-OV-3 ovarian = test system: SK-OV-3 ovarian
# SN12C renal = test system: SN12C renal
# OVCAR-8 ovarian = test system: OVCAR-8 ovarian
# EKVX NSCLC = test system: EKVX NSCLC
# A549 NSCLC = test system: A549 NSCLC
# PC-3 prostate = test system: PC-3 prostate
# LOX IMVI melanoma = test system: LOX IMVI melanoma
# MDA-MB-231 breast = test system: MDA-MB-231 breast
# SK-MEL-28 melanoma = test system: SK-MEL-28 melanoma
# HOP-62 NSCLC = test system: HOP-62 NSCLC
# M14 melanoma = test system: M14 melanoma
# SNB-19 CNS = test system: SNB-19 CNS
# SW-620 colon = test system: SW-620 colon
# HL-60(TB) leukemia = test system: HL-60(TB) leukemia
# KM12 colon = test system: KM12 colon
# NCI/ADR-RES ovarian = test system: NCI/ADR-RES ovarian
compound,measurement,setting,value
Cc1[nH]c2ccccc2c1CCNCc1ccc(/C=C/C(=O)NO)cc1,GI50,BT-549 breast,0.213 µM
same,TGI,BT-549 breast,12.3 µM
same,GI50,786-0 renal,0.0275 µM
same,TGI,786-0 renal,0.49 µM
same,GI50,OVCAR-5 ovarian,< 0.01 µM
same,TGI,OVCAR-5 ovarian,0.0911 µM
same,GI50,A498 renal,< 0.01 µM
same,TGI,A498 renal,0.022 µM
same,GI50,HCC-2998 colon,0.0121 µM
same,TGI,HCC-2998 colon,0.0353 µM
same,GI50,COLO 205 colon,< 0.0108 µM
same,TGI,COLO 205 colon,0.0218 µM
same,GI50,RPMI-8226 leukemia,< 0.0123 µM
same,TGI,RPMI-8226 leukemia,0.595 µM
same,GI50,K-562 leukemia,< 0.01 µM
same,TGI,K-562 leukemia,0.0833 µM
same,GI50,UACC-62 melanoma,< 0.01 µM
same,TGI,UACC-62 melanoma,0.0229 µM
same,GI50,UACC-257 melanoma,< 0.01 µM
same,TGI,UACC-257 melanoma,0.0447 µM
same,GI50,NCI-H522 lung,< 0.01 µM
same,TGI,NCI-H522 lung,0.0324 µM
same,GI50,SK-OV-3 ovarian,0.0134 µM
same,TGI,SK-OV-3 ovarian,0.0412 µM
same,GI50,SN12C renal,0.0272 µM
same,TGI,SN12C renal,0.317 µM
same,GI50,OVCAR-8 ovarian,< 0.01 µM
same,TGI,OVCAR-8 ovarian,0.178 µM
same,GI50,EKVX NSCLC,0.023 µM
same,TGI,EKVX NSCLC,1.5 µM
same,GI50,A549 NSCLC,0.0158 µM
same,TGI,A549 NSCLC,0.101 µM
same,GI50,PC-3 prostate,< 0.0114 µM
same,TGI,PC-3 prostate,2.86 µM
same,GI50,LOX IMVI melanoma,0.0128 µM
same,TGI,LOX IMVI melanoma,0.03 µM
same,GI50,MDA-MB-231 breast,0.0284 µM
same,TGI,MDA-MB-231 breast,0.162 µM
same,GI50,SK-MEL-28 melanoma,< 0.0115 µM
same,TGI,SK-MEL-28 melanoma,0.0728 µM
same,GI50,HOP-62 NSCLC,< 0.0122 µM
same,TGI,HOP-62 NSCLC,0.0697 µM
same,GI50,M14 melanoma,< 0.0116 µM
same,TGI,M14 melanoma,0.111 µM
same,GI50,SNB-19 CNS,0.0244 µM
same,TGI,SNB-19 CNS,0.323 µM
same,GI50,SW-620 colon,< 0.01 µM
same,TGI,SW-620 colon,0.0219 µM
same,GI50,HL-60(TB) leukemia,< 0.01 µM
same,TGI,HL-60(TB) leukemia,3.16 µM
same,GI50,KM12 colon,0.0193 µM
same,TGI,KM12 colon,0.112 µM
same,GI50,NCI/ADR-RES ovarian,0.0211 µM
same,TGI,NCI/ADR-RES ovarian,0.267 µM
